Assay results from PubChem BioAssay (NCI).
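Each compound was tested at five concentrations against cells in 96-well plates for 48 hours. The concentration for full growth arrest is given as TGI.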

Legend:
Assay in all cases: NCI tumour cell line growth inhibition, 48 h
[1] = tested on: DU-145 prostate
[2] = tested on: M14 melanoma
[3] = tested on: T-47D breast
[4] = tested on: NCI/ADR-RES ovarian
[5] = tested on: NCI-H226 lung
[6] = tested on: SW-620 colon
[7] = tested on: UACC-62 melanoma
[8] = tested on: LOX IMVI melanoma
[9] = tested on: SK-MEL-2 melanoma
[10] = tested on: TK-10 renal
[11] = tested on: UACC-257 melanoma
[12] = tested on: OVCAR-5 ovarian
[13] = tested on: U251 CNS
[14] = tested on: SF-268 CNS
[15] = tested on: NCI-H522 lung
[16] = tested on: HT29 colon
[17] = tested on: RPMI-8226 leukemia
[18] = tested on: SF-295 CNS
[19] = tested on: COLO 205 colon
[20] = tested on: HCT-15 colon
[21] = tested on: MDA-N
[22] = tested on: ACHN renal
[23] = tested on: HOP-92 NSCLC
[24] = tested on: OVCAR-3 ovarian
[25] = tested on: BT-549 breast
[26] = tested on: CCRF-CEM leukemia
[27] = tested on: MCF7 breast
[28] = tested on: A498 renal
[29] = tested on: SK-MEL-5 melanoma
[30] = tested on: K-562 leukemia
[31] = tested on: SN12C renal
[32] = tested on: KM12 colon
[33] = tested on: SF-539 CNS
[34] = tested on: SNB-19 CNS
[35] = tested on: PC-3 prostate
[36] = tested on: SR leukemia
[37] = tested on: SK-OV-3 ovarian
[38] = tested on: CAKI-1 renal
[39] = tested on: A549 NSCLC
[40] = tested on: HCT-116 colon
[41] = tested on: OVCAR-8 ovarian
[42] = tested on: IGROV1 ovarian
[43] = tested on: OVCAR-4 ovarian
[44] = tested on: MDA-MB-231 breast
[45] = tested on: 786-0 renal
[46] = tested on: MDA-MB-435
[47] = tested on: EKVX NSCLC
[48] = tested on: HOP-62 NSCLC
[49] = tested on: HCC-2998 colon
[50] = tested on: UO-31 renal
[51] = tested on: MOLT-4 leukemia
[52] = tested on: NCI-H23 lung
[53] = tested on: HL-60(TB) leukemia
[54] = tested on: SK-MEL-28 melanoma
[55] = tested on: NCI-H460 lung
[56] = tested on: RXF 393 renal
[57] = tested on: SNB-75 CNS
[58] = tested on: HS 578T breast
[59] = tested on: MALME-3M melanoma

COc1ncnc2c1cnn2Cc1cn(COCC(O)CO)nn1 (stereo not drawn)
TGI [1]: > 100 µM
TGI [2]: > 100 µM
TGI [3]: > 100 µM
TGI [4]: > 100 µM
TGI [5]: > 100 µM
TGI [6]: > 100 µM
TGI [7]: > 100 µM
TGI [8]: > 100 µM
TGI [9]: > 100 µM
TGI [10]: > 100 µM
TGI [11]: > 100 µM
TGI [12]: > 100 µM
TGI [13]: > 100 µM
TGI [14]: 35 µM
TGI [15]: 26.2 µM
TGI [16]: > 100 µM
TGI [17]: > 100 µM
TGI [18]: > 100 µM
TGI [19]: > 100 µM
TGI [20]: > 100 µM
TGI [21]: > 100 µM
TGI [22]: > 100 µM
TGI [23]: > 100 µM
TGI [24]: > 100 µM
TGI [25]: > 100 µM
TGI [26]: > 100 µM
TGI [27]: > 100 µM
TGI [28]: > 100 µM
TGI [29]: > 100 µM
TGI [30]: > 100 µM
TGI [31]: > 100 µM
TGI [32]: > 100 µM
TGI [33]: > 100 µM
TGI [34]: > 100 µM
TGI [35]: > 100 µM
TGI [36]: > 100 µM
TGI [37]: > 100 µM
TGI [38]: > 100 µM
TGI [39]: > 100 µM
TGI [40]: > 100 µM
TGI [41]: > 100 µM
TGI [42]: > 100 µM
TGI [43]: > 100 µM
TGI [44]: > 100 µM
TGI [45]: > 100 µM
TGI [46]: > 100 µM
TGI [47]: > 100 µM
TGI [48]: > 100 µM
TGI [49]: > 100 µM
TGI [50]: > 100 µM
TGI [51]: > 100 µM
TGI [52]: > 100 µM
TGI [53]: > 100 µM
TGI [54]: > 100 µM

O=C1CC(=O)N(C2CCCCC2)C(=O)N1c1ccccc1S(=O)(=O)Oc1ccccc1
TGI [1]: > 100 µM
TGI [2]: > 100 µM
TGI [3]: > 100 µM
TGI [4]: > 100 µM
TGI [6]: > 100 µM
TGI [7]: > 100 µM
TGI [8]: 7.69 µM
TGI [9]: > 100 µM
TGI [10]: > 100 µM
TGI [55]: > 100 µM
TGI [11]: > 100 µM
TGI [12]: > 100 µM
TGI [13]: > 100 µM
TGI [14]: > 100 µM
TGI [16]: > 100 µM
TGI [17]: 97.1 µM
TGI [18]: > 100 µM
TGI [19]: > 100 µM
TGI [20]: > 100 µM
TGI [21]: > 100 µM
TGI [22]: 36.5 µM
TGI [23]: > 100 µM
TGI [24]: > 100 µM
TGI [25]: > 100 µM
TGI [26]: 54.5 µM
TGI [27]: > 100 µM
TGI [28]: > 100 µM
TGI [29]: > 100 µM
TGI [30]: 85.9 µM
TGI [31]: > 100 µM
TGI [32]: > 100 µM
TGI [33]: > 100 µM
TGI [34]: > 100 µM
TGI [35]: > 100 µM
TGI [36]: > 100 µM
TGI [37]: > 100 µM
TGI [38]: > 100 µM
TGI [39]: > 100 µM
TGI [40]: > 100 µM
TGI [41]: > 100 µM
TGI [56]: > 100 µM
TGI [42]: 30.2 µM
TGI [43]: > 100 µM
TGI [44]: > 100 µM
TGI [57]: > 100 µM
TGI [45]: 33.3 µM
TGI [46]: > 100 µM
TGI [47]: > 100 µM
TGI [48]: > 100 µM
TGI [49]: > 100 µM
TGI [50]: 33 µM
TGI [51]: 37.8 µM
TGI [53]: > 100 µM
TGI [54]: > 100 µM

O=C1/C(=C\c2ccc([N+](=O)[O-])cc2)Sc2scc(-c3ccc(O)c(O)c3)[n+]21
TGI [1]: 37.2 µM
TGI [2]: 27.4 µM
TGI [3]: 54.6 µM
TGI [4]: 50.1 µM
TGI [5]: > 100 µM
TGI [6]: 15 µM
TGI [7]: 23.4 µM
TGI [8]: > 100 µM
TGI [9]: 29.3 µM
TGI [10]: 10.6 µM
TGI [55]: 16.5 µM
TGI [11]: 22.6 µM
TGI [12]: 35.4 µM
TGI [13]: 20.5 µM
TGI [14]: 21 µM
TGI [15]: 5.34 µM
TGI [16]: 15.7 µM
TGI [17]: 15.2 µM
TGI [18]: 31.8 µM
TGI [19]: 6.07 µM
TGI [20]: 14.1 µM
TGI [21]: 25.6 µM
TGI [22]: 47.5 µM
TGI [23]: 31.8 µM
TGI [24]: 9.79 µM
TGI [26]: 16.3 µM
TGI [27]: 15.3 µM
TGI [58]: 63.7 µM
TGI [29]: 13.4 µM
TGI [30]: > 100 µM
TGI [31]: 50 µM
TGI [32]: 27.6 µM
TGI [33]: 22.5 µM
TGI [34]: 74 µM
TGI [35]: 19.4 µM
TGI [36]: 27.9 µM
TGI [37]: 26.2 µM
TGI [38]: 9.72 µM
TGI [39]: 55.4 µM
TGI [40]: 75.2 µM
TGI [41]: 29.3 µM
TGI [42]: 19.7 µM
TGI [43]: 24.7 µM
TGI [44]: 66.9 µM
TGI [57]: 25.9 µM
TGI [45]: 22.5 µM
TGI [46]: 21.9 µM
TGI [47]: 31.6 µM
TGI [48]: 27.5 µM
TGI [49]: 19 µM
TGI [50]: 22.3 µM
TGI [51]: 51.3 µM
TGI [52]: 44.6 µM
TGI [53]: 8.93 µM
TGI [54]: 25 µM

CC12CC3CC/C(=N\O)C(C1)C3(N1CCOCC1)C/C2=N/O (stereo not drawn)
TGI [1]: > 100 µM
TGI [2]: > 100 µM
TGI [3]: > 100 µM
TGI [4]: > 100 µM
TGI [5]: > 100 µM
TGI [6]: > 100 µM
TGI [7]: > 100 µM
TGI [8]: > 100 µM
TGI [9]: > 100 µM
TGI [55]: > 100 µM
TGI [11]: > 100 µM
TGI [12]: > 100 µM
TGI [13]: > 100 µM
TGI [14]: > 100 µM
TGI [15]: > 100 µM
TGI [16]: > 100 µM
TGI [18]: > 100 µM
TGI [19]: > 100 µM
TGI [20]: > 100 µM
TGI [21]: > 100 µM
TGI [22]: > 100 µM
TGI [23]: > 100 µM
TGI [24]: > 100 µM
TGI [26]: > 100 µM
TGI [27]: > 100 µM
TGI [28]: > 100 µM
TGI [29]: > 100 µM
TGI [30]: > 100 µM
TGI [31]: > 100 µM
TGI [32]: > 100 µM
TGI [33]: > 100 µM
TGI [34]: > 100 µM
TGI [35]: > 100 µM
TGI [36]: > 100 µM
TGI [37]: > 100 µM
TGI [38]: > 100 µM
TGI [39]: > 100 µM
TGI [40]: > 100 µM
TGI [41]: > 100 µM
TGI [56]: > 100 µM
TGI [42]: > 100 µM
TGI [43]: > 100 µM
TGI [44]: > 100 µM
TGI [57]: 94.8 µM
TGI [45]: > 100 µM
TGI [46]: > 100 µM
TGI [47]: > 100 µM
TGI [48]: > 100 µM
TGI [49]: > 100 µM
TGI [50]: > 100 µM
TGI [51]: > 100 µM
TGI [52]: > 100 µM
TGI [59]: > 100 µM
TGI [53]: > 100 µM
TGI [54]: > 100 µM
